In patent publication US5672715A, “Herbicidal substituted 3-aryl-pyrazoles” (Monsanto Company, priority 1995, dated 1997):
Like-named read-outs stand apart in the source and are kept apart here.

What was measured:
Assay type in all cases: in vivo
[1] = tested on: Barnyardgrass; assay: pre-emergence herbicide test; conditions: Echinochloa crus-galli, pre-emergence, read-out: % plant inhibition
Outline: (§1)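 Read-out is percent inhibition at approximately 14 days after seeding and treating. Seeds sat on compacted topsoil beneath a cover layer containing compound in acetone or water, with greenhouse bottom-watering.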

[2] = tested on: Cocklebur; assay: pre-emergence herbicide test; conditions: Xanthium strumarium, pre-emergence, read-out: % plant inhibition
Outline: as §1

[3] = tested on: Corn; assay: pre-emergence herbicide test; conditions: Zea mays, pre-emergence, read-out: % plant inhibition
Outline: as §1

[4] = tested on: Morning Glory; assay: pre-emergence herbicide test; conditions: Ipomoea, pre-emergence, read-out: % plant inhibition
Outline: as §1

[5] = tested on: Rice; assay: pre-emergence herbicide test; conditions: Oryza sativa, read-out: % plant inhibition
Outline: as §1

[6] = tested on: Soybean; assay: pre-emergence herbicide test; conditions: Glycine max, pre-emergence, read-out: % plant inhibition
Outline: as §1

[7] = tested on: Velvetleaf; assay: pre-emergence herbicide test; conditions: Abutilon theophrasti, pre-emergence, read-out: % plant inhibition
Outline: as §1

[8] = tested on: Yellow Foxtail; assay: pre-emergence herbicide test; conditions: Setaria, read-out: % plant inhibition
Outline: as §1

[9] = tested on: Yellow Nutsedge; assay: pre-emergence herbicide test; conditions: Cyperus, read-out: % plant inhibition
Outline: as §1

[10] = tested on: Barnyardgrass; assay: post-emergence herbicide test; conditions: Echinochloa crus-galli, post-emergence, read-out: % plant inhibition
Outline: (§2)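 Percent inhibition of each species scored after post-emergence spraying of two- to three-week-old greenhouse plants. Spray solution carried about 0.4% by volume emulsifier, delivered by atomizer at 170.3 kPa (10 psig) and 1870 L/Ha total volume.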

[11] = tested on: Blackgrass; assay: post-emergence herbicide test; conditions: Alopecurus myosuroides, post-emergence, read-out: % plant inhibition; for inhibition at 7.95803 g/ha: 0.0071 lb/A; for inhibition at 40.0143 g/ha: 0.0357 lb/A; for inhibition at 200.072 g/ha: 0.1785 lb/A; for inhibition at 1000.92 g/ha: 0.893 lb/A
Outline: as §2

[12] = tested on: Common Chickweed; assay: post-emergence herbicide test; conditions: post-emergence, read-out: % plant inhibition
Outline: as §2

[13] = tested on: Morning Glory; assay: post-emergence herbicide test; conditions: Ipomoea, post-emergence, read-out: % plant inhibition
Outline: as §2

[14] = tested on: Soybean; assay: post-emergence herbicide test; conditions: Glycine max, post-emergence, read-out: % plant inhibition
Outline: as §2

[15] = tested on: Velvetleaf; assay: post-emergence herbicide test; conditions: Abutilon theophrasti, post-emergence, read-out: % plant inhibition
Outline: as §2

[16] = tested on: Yellow Foxtail; assay: post-emergence herbicide test; conditions: Setaria, read-out: % plant inhibition
Outline: as §2

`Cc1c(-c2cc(OCC(=O)OC(C)C)c(Cl)cc2F)nn(C)c1C(F)(F)F` [Compound 38] was tested, and the inhibition at 7.95803 g/ha ([1]; 0.0071 lb/A) was 0%, the inhibition at 40.0143 g/ha ([1]; 0.0357 lb/A) was 15% and the inhibition at 200.072 g/ha ([1]; 0.1785 lb/A) was 35%. The inhibition at 1000.92 g/ha ([1]; 0.893 lb/A) was 70%, the inhibition at 40.0143 g/ha ([2]; 0.0357 lb/A) was 65% and the inhibition at 200.072 g/ha ([2]; 0.1785 lb/A) was 85%. The inhibition at 280.212 g/ha ([2]; 0.25 lb/A) was 70%, the inhibition at 1000.92 g/ha ([2]; 0.893 lb/A) was 90% and the inhibition at 7.95803 g/ha ([3]; 0.0071 lb/A) was 0%. The inhibition at 40.0143 g/ha ([3]; 0.0357 lb/A) was 0%, the inhibition at 200.072 g/ha ([3]; 0.1785 lb/A) was 0% and the inhibition at 1000.92 g/ha ([3]; 0.893 lb/A) was 40%. The inhibition at 7.95803 g/ha ([4]; 0.0071 lb/A) was 20%, the inhibition at 40.0143 g/ha ([4]; 0.0357 lb/A) was 75% and the inhibition at 200.072 g/ha ([4]; 0.1785 lb/A) was 95%. For the same compound, the inhibition at 280.212 g/ha ([4]; 0.25 lb/A) was 100%, the inhibition at 1000.92 g/ha ([4]; 0.893 lb/A) was 100% and the inhibition at 7.95803 g/ha ([5]; 0.0071 lb/A) was 0%. The inhibition at 40.0143 g/ha ([5]; 0.0357 lb/A) was 0%, the inhibition at 200.072 g/ha ([5]; 0.1785 lb/A) was 0% and the inhibition at 1000.92 g/ha ([5]; 0.893 lb/A) was 40%. It also gave an inhibition at 7.95803 g/ha ([6]; 0.0071 lb/A) of 0%, an inhibition at 40.0143 g/ha ([6]; 0.0357 lb/A) of 5% and an inhibition at 280.212 g/ha ([6]; 0.25 lb/A) of 0%. For the same compound, the inhibition at 1000.92 g/ha ([6]; 0.893 lb/A) was 70%, the inhibition at 7.95803 g/ha ([7]; 0.0071 lb/A) was 100% and the inhibition at 40.0143 g/ha ([7]; 0.0357 lb/A) was 80%. It also gave an inhibition at 200.072 g/ha ([7]; 0.1785 lb/A) of 98%, an inhibition at 280.212 g/ha ([7]; 0.25 lb/A) of 100% and an inhibition at 1000.92 g/ha ([7]; 0.893 lb/A) of 100%. It also gave an inhibition at 7.95803 g/ha ([8]; 0.0071 lb/A) of 0%, an inhibition at 40.0143 g/ha ([8]; 0.0357 lb/A) of 0% and an inhibition at 200.072 g/ha ([8]; 0.1785 lb/A) of 25%. The inhibition at 280.212 g/ha ([8]; 0.25 lb/A) was 40%, the inhibition at 1000.92 g/ha ([8]; 0.893 lb/A) was 65% and the inhibition at 7.95803 g/ha ([9]; 0.0071 lb/A) was 0%. The inhibition at 40.0143 g/ha ([9]; 0.0357 lb/A) was 20%, the inhibition at 200.072 g/ha ([9]; 0.1785 lb/A) was 0% and the inhibition at 1000.92 g/ha ([9]; 0.893 lb/A) was 85%. It also gave an inhibition at 7.95803 g/ha ([10]; 0.0071 lb/A) of 10%, an inhibition at 40.0143 g/ha ([10]; 0.0357 lb/A) of 10% and an inhibition at 200.072 g/ha ([10]; 0.1785 lb/A) of 15%. The inhibition at 1000.92 g/ha ([10]; 0.893 lb/A) was 15%, the inhibition at 7.95803 g/ha ([11]; Table 4a) was 0% and the inhibition at 7.95803 g/ha ([11]; Table 5a) was 0%. The inhibition at 40.0143 g/ha ([11]; Table 4a) was 0%, the inhibition at 40.0143 g/ha ([11]; Table 5a) was 25% and the inhibition at 200.072 g/ha ([11]; Table 4a) was 10%. For the same compound, the inhibition at 200.072 g/ha ([11]; Table 5a) was 30%, the inhibition at 1000.92 g/ha ([11]; Table 4a) was 0% and the inhibition at 1000.92 g/ha ([11]; Table 5a) was 5%. The inhibition at 7.95803 g/ha ([12]; 0.0071 lb/A) was 65%, the inhibition at 40.0143 g/ha ([12]; 0.0357 lb/A) was 75% and the inhibition at 200.072 g/ha ([12]; 0.1785 lb/A) was 95%. It also gave an inhibition at 1000.92 g/ha ([12]; 0.893 lb/A) of 98%, an inhibition at 7.95803 g/ha ([13]; 0.0071 lb/A) of 80% and an inhibition at 40.0143 g/ha ([13]; 0.0357 lb/A) of 100%. For the same compound, the inhibition at 200.072 g/ha ([13]; 0.1785 lb/A) was 100%, the inhibition at 280.212 g/ha ([13]; 0.25 lb/A) was 95% and the inhibition at 1000.92 g/ha ([13]; 0.893 lb/A) was 100%. The inhibition at 7.95803 g/ha ([14]; 0.0071 lb/A) was 10%, the inhibition at 40.0143 g/ha ([14]; 0.0357 lb/A) was 20% and the inhibition at 200.072 g/ha ([14]; 0.1785 lb/A) was 30%. For the same compound, the inhibition at 280.212 g/ha ([14]; 0.25 lb/A) was 15%, the inhibition at 1000.92 g/ha ([14]; 0.893 lb/A) was 25% and the inhibition at 7.95803 g/ha ([15]; 0.0071 lb/A) was 65%. It also gave an inhibition at 40.0143 g/ha ([15]; 0.0357 lb/A) of 100%, an inhibition at 200.072 g/ha ([15]; 0.1785 lb/A) of 100% and an inhibition at 280.212 g/ha ([15]; 0.25 lb/A) of 100%. It also gave an inhibition at 1000.92 g/ha ([15]; 0.893 lb/A) of 100%, an inhibition at 7.95803 g/ha ([16]; 0.0071 lb/A) of 0% and an inhibition at 40.0143 g/ha ([16]; 0.0357 lb/A) of 35%. It also gave an inhibition at 200.072 g/ha ([16]; 0.1785 lb/A) of 10% and an inhibition at 1000.92 g/ha ([16]; 0.893 lb/A) of 15%.
